In US20260325533A1, “CDK INHIBITOR COMPOUNDS” (ALEKSIA THERAPEUTICS, INC., priority 2023, published 2026):
Where two headings read alike, the source gives them in different places.

Key:
Format in all cases: biochemical
CDK2/CCNE1 = CDK2/CCNE1 (Homo sapiens, UniProt P24941); assay: CDK2 homogeneous time-resolved fluorescence (HTRF) kinase assay; settings: CDK2/CCNE
Procedure, shortened: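 3 nM CDK2/CCNE1 was preincubated with compound for 20 min at 23 °C in HEPES buffer (pH not stated), then reacted 60 min with 1 mM ATP and 50 nM ULight-4E-BP1 (Thr37/46) peptide. After EDTA stop, Eu-anti-phospho-4E-BP1 antibody (2 nM) was added for 60 min and TR-FRET read at 665 nm.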

CDK1/CCNB1 = CDK1/CCNB1 (Homo sapiens, UniProt P06493); assay: CDK1 homogeneous time-resolved fluorescence (HTRF) kinase assay; settings: >250 nM; CDK1/CCNB; read-out: CDK1/CCNB IC50 >250 nM
Procedure, shortened: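 HTRF assay with 0.5 nM CDK1/CCNB1, 1 mM ATP, 50 nM ULight-eIF4E-BP1 (Thr37/46) peptide; compound preincubated 20 min, reaction 60 min at 23 °C, EDTA stop, Eu-anti-phospho antibody detection. 11-point half-log titration from 10 μM, 1% DMSO; IC50 from 665 nm or 665/615 signal.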

CDK4/CCND3 = CDK4/CCND3 (Homo sapiens, UniProt P11802); assay: CDK4 homogeneous time-resolved fluorescence (HTRF) kinase assay; settings: CDK4/CCND
Procedure, shortened: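 Inhibition of CDK4/CCND3 (1.5 nM) was measured at high ATP (1 mM) using 50 nM ULight-labelled 4E-BP1 Thr37/46 peptide; detection used 2 nM europium anti-phospho antibody after EDTA quench. IC50 values came from 11-point half-log titrations typically starting at 10 μM.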

CDK6/CCND1 = CDK6/CCND1 (Homo sapiens, UniProt Q00534); assay: CDK6 homogeneous time-resolved fluorescence (HTRF) kinase assay; settings: CDK6/CCND, 1 mM ATP
Procedure, shortened: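 1 nM enzyme, 1 mM ATP, 50 nM ULight-4E-BP1 (Thr37/46) peptide, 1% DMSO; 20 min compound preincubation, 60 min reaction, 23 °C. EDTA stop, 2 nM Eu-anti-phospho-4E-BP1 antibody 60 min. TR-FRET 665 nm (or 665/615 ratio); IC50 from 11-point half-log titration, top 10 μM.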

[1] = <25 nM, read-out: CDK2/CCNE IC50, <25 nM
[2] = >250 nM, read-out: CDK4/CCND IC50, >250 nM
[3] = 25-250 nM, read-out: CDK6/CCND IC50, 25-250 nM
[4] = >250 nM, read-out: CDK6/CCND IC50, >250 nM
[5] = 25-250 nM, read-out: CDK2/CCNE IC50, 25-250 nM
[6] = 25-250 nM, read-out: CDK4/CCND IC50, 25-250 nM
[7] = >250 nM, read-out: CDK2/CCNE IC50, >250 nM

Chain of CDK4/CCND3 (P11802 whole entry): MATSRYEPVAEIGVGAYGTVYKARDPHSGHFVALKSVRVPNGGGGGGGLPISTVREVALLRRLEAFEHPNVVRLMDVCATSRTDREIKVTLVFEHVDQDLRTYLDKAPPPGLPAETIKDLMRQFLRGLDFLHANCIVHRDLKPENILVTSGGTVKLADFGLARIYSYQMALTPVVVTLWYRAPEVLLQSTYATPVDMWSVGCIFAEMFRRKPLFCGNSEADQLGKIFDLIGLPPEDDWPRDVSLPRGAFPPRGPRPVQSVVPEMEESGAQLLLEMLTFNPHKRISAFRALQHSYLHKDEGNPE
Chain of CDK4/CCND3 (P30281 whole entry partner): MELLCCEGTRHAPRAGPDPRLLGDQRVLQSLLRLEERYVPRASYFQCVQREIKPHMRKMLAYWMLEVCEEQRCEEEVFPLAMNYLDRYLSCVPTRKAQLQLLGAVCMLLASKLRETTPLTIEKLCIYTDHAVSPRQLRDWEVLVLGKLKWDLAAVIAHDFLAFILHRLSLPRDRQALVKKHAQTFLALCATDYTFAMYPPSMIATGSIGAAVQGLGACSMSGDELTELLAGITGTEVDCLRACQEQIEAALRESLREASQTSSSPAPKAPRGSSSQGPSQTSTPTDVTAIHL
Chain of CDK6/CCND1 (Q00534 whole entry): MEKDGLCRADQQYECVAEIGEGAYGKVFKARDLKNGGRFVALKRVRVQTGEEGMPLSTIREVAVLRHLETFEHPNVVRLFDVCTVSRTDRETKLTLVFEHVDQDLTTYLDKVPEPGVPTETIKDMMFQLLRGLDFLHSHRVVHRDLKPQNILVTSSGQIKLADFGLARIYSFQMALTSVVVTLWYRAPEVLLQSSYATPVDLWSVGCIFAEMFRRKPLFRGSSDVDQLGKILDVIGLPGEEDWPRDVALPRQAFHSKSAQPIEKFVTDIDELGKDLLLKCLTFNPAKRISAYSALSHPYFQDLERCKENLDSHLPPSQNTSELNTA
Chain of CDK6/CCND1 (P24385 whole entry partner): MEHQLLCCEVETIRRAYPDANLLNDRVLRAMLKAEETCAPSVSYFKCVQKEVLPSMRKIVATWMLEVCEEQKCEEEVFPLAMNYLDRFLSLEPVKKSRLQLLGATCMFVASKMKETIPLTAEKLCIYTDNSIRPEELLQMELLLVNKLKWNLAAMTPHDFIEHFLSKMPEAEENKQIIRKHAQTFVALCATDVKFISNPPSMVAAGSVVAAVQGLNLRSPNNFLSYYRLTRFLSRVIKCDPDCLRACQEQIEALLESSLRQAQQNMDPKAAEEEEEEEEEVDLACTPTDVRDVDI
Chain of CDK1/CCNB1 (P06493 whole entry): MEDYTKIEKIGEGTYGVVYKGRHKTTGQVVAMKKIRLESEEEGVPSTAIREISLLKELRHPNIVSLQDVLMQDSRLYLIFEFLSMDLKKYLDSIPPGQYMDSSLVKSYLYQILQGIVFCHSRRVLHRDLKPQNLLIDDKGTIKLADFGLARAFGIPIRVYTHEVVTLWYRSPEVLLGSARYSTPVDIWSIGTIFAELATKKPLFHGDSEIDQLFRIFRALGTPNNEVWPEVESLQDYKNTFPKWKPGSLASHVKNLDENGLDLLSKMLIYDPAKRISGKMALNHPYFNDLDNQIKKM
Chain of CDK1/CCNB1 (P14635 whole entry partner): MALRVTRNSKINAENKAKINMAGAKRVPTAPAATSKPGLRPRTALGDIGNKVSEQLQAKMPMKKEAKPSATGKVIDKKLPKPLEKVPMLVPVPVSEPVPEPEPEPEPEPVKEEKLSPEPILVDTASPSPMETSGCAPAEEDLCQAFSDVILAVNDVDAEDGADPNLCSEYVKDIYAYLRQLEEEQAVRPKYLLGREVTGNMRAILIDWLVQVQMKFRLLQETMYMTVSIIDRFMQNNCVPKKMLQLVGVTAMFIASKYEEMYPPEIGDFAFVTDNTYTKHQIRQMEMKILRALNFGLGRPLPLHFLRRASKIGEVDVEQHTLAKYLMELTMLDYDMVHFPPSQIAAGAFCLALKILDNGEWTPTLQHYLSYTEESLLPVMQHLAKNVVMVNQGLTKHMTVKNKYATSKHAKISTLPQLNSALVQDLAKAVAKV

SMILES | IC50 (CDK2/CCNE1; [1]) | IC50 (CDK1/CCNB1) | IC50 (CDK4/CCND3; [2]) | IC50 (CDK6/CCND1; [3]) | IC50 (CDK6/CCND1; [4]) | IC50 (CDK2/CCNE1; [5]) | IC50 (CDK4/CCND3; [6]) | IC50 (CDK2/CCNE1; [7])
Cc1cc(S(C)(=O)=O)ccc1Nc1cc2c(-c3ccc4c(cnn4CC(C)(C)O)c3C)nccc2cn1 [Ex 845, 2-methyl-1-(4-methyl-5-(7-((2-methyl-4-(methylsulfonyl)phenyl)amino)-2,6-naphthyridin-1-yl)-1H-indazol-1-yl)propan-2-ol] | < 25 nM | > 250 nM | > 250 nM | 25 to 250 nM | – | – | – | –
Cc1c(-c2nccc3cnc(Nc4ccc(S(C)(=O)=O)cc4F)cc23)ccc2c1cnn2CC(C)(C)O [Ex 846, 1-(5-(7-((2-fluoro-4-(methylsulfonyl)phenyl)amino)-2,6-naphthyridin-1-yl)-4-methyl-1H-indazol-1-yl)-2-methylpropan-2-ol] | < 25 nM | > 250 nM | > 250 nM | – | > 250 nM | – | – | –
Cc1c(-c2nccc3cnc(Nc4ccc(S(C)(=O)=O)cc4Cl)cc23)ccc2c1cnn2CC(C)(C)O [Ex 847, 1-(5-(7-((2-chloro-4-(methylsulfonyl)phenyl)amino)-2,6-naphthyridin-1-yl)-4-methyl-1H-indazol-1-yl)-2-methylpropan-2-ol] | – | > 250 nM | > 250 nM | – | > 250 nM | 25 to 250 nM | – | –
Cc1c(-c2nccc3cnc(Nc4ccc(S(C)(=O)=O)cn4)cc23)ccc2c1cnn2CC(C)(C)O [Ex 848, 2-methyl-1-(4-methyl-5-(7-((5-(methylsulfonyl)pyridin-2-yl)amino)-2,6-naphthyridin-1-yl)-1H-indazol-1-yl)propan-2-ol] | < 25 nM | > 250 nM | – | 25 to 250 nM | – | – | 25 to 250 nM | –
Cc1c(-c2nccc3cnc(Nc4ccc(S(=O)(=O)Nc5ncc(N6CCN(C)CC6)cn5)cc4)cc23)ccc2c1cnn2CC(C)(C)O [Ex 849, 4-((5-(1-(2-hydroxy-2-methylpropyl)-4-methyl-1H-indazol-5-yl)-2,6-naphthyridin-3-yl)amino)-N-(5-(4-methylpiperazin-1-yl)pyrimidin-2-yl)benzenesulfonamide] | < 25 nM | > 250 nM | – | 25 to 250 nM | – | – | 25 to 250 nM | –
Cc1c(-c2nccc3cnc(Nc4ccc(S(=O)(=O)Nc5ncc(N6CCOCC6)cn5)cc4)cc23)ccc2c1cnn2CC(C)(C)O [Ex 850, 4-((5-(1-(2-hydroxy-2-methylpropyl)-4-methyl-1H-indazol-5-yl)-2,6-naphthyridin-3-yl)amino)-N-(5-morpholinopyrimidin-2-yl)benzenesulfonamide] | < 25 nM | > 250 nM | > 250 nM | – | > 250 nM | – | – | –
CCOC(=O)c1cn2cc(C#Cc3nccc4cnc(Nc5ccc(S(C)(=O)=O)cc5)cc34)ccc2n1 [Ex 851, ethyl6-((7-((4-(methylsulfonyl)phenyl)amino)-2,6-naphthyridin-1-yl)ethynyl)imidazo[1,2-a]pyridine-2-carboxylate] | – | > 250 nM | > 250 nM | – | > 250 nM | – | – | > 250 nM
C[C@@H]1CN(c2cc(Nc3cc4c(C#Cc5ccc(=O)[nH]n5)nccc4cn3)cnc2O)CCN1C [Ex 853, (R)-6-((7-((5-(3,4-dimethylpiperazin-1-yl)-6-hydroxypyridin-3-yl)amino)-2,6-naphthyridin-1-yl)ethynyl)pyridazin-3(2H)-one absolute] | – | > 250 nM | > 250 nM | – | > 250 nM | 25 to 250 nM | – | –
CC#Cc1nccc2cnc(Nc3ccc(S(=O)(=O)Nc4nccn4C)cc3)cc12 [Ex 854, N-(1-methyl-1H-imidazol-2-yl)-4-((5-(prop-1-yn-1-yl)-2,6-naphthyridin-3-yl)amino)benzenesulfonamide] | < 25 nM | > 250 nM | > 250 nM | – | > 250 nM | – | – | –
Cc1c(-c2nccc3cnc(Nc4ccc(S(=O)(=O)Nc5nncn5C)cc4)cc23)ccc2c1cnn2CC(C)(C)O [Ex 855, 4-((5-(1-(2-hydroxy-2-methylpropyl)-4-methyl-1H-indazol-5-yl)-2,6-naphthyridin-3-yl)amino)-N-(4-methyl-4H-1,2,4-triazol-3-yl)benzenesulfonamide] | – | > 250 nM | > 250 nM | – | > 250 nM | 25 to 250 nM | – | –
Cn1ncc2cc(C#Cc3nccc4cnc(Nc5ccc(S(C)(=O)=O)cc5)cc34)ccc21 [Ex 856, 5-((1-methyl-1H-indazol-5-yl)ethynyl)-N-(4-(methylsulfonyl)phenyl)-2,6-naphthyridin-3-amine] | – | > 250 nM | > 250 nM | – | > 250 nM | 25 to 250 nM | – | –
CS(=O)(=O)c1ccc(Nc2cc3c(C#Cc4ccc5c(c4)OCO5)nccc3cn2)cc1 [Ex 857, 5-(benzo[d][1,3]dioxol-5-ylethynyl)-N-(4-(methylsulfonyl)phenyl)-2,6-naphthyridin-3-amine] | – | > 250 nM | > 250 nM | – | > 250 nM | 25 to 250 nM | – | –
CSc1ccc(C#Cc2nccc3cnc(Nc4ccc(S(C)(=O)=O)cc4)cc23)cc1 [Ex 858, N-(4-(methylsulfonyl)phenyl)-5-((4-(methylthio)phenyl)ethynyl)-2,6-naphthyridin-3-amine] | – | > 250 nM | > 250 nM | – | > 250 nM | 25 to 250 nM | – | –
Cn1cc2ccc(C#Cc3nccc4cnc(Nc5ccc(S(C)(=O)=O)cc5)cc34)cc2n1 [Ex 859, 5-((2-methyl-2H-indazol-6-yl)ethynyl)-N-(4-(methylsulfonyl)phenyl)-2,6-naphthyridin-3-amine] | – | > 250 nM | > 250 nM | – | > 250 nM | 25 to 250 nM | – | –
CS(=O)(=O)c1ccc(Nc2cc3c(C#Cc4cc(F)c5cn[nH]c5c4)nccc3cn2)cc1 [Ex 860, 5-((4-fluoro-1H-indazol-6-yl)ethynyl)-N-(4-(methylsulfonyl)phenyl)-2,6-naphthyridin-3-amine] | – | > 250 nM | > 250 nM | – | > 250 nM | – | – | > 250 nM
CS(=O)(=O)c1ccc(Nc2cc3c(C#Cc4ccc5c(O)ncnc5c4)nccc3cn2)cc1 [Ex 861, 7-((7-((4-(methylsulfonyl)phenyl)amino)-2,6-naphthyridin-1-yl)ethynyl)quinazolin-4-ol] | – | > 250 nM | > 250 nM | – | > 250 nM | 25 to 250 nM | – | –
CN1CCN(c2ccc(C#Cc3nccc4cnc(Nc5ccc(S(=O)(=O)Nc6ncccn6)cc5)cc34)cc2)CC1 [Ex 864, 4-((5-((4-(4-methylpiperazin-1-yl)phenyl)ethynyl)-2,6-naphthyridin-3-yl)amino)-N-(pyrimidin-2-yl)benzenesulfonamide] | – | > 250 nM | > 250 nM | – | > 250 nM | 25 to 250 nM | – | –
C[C@H]1CN(c2cc(Nc3cc4c(C#Cc5ccc(=O)[nH]n5)nccc4cn3)cnc2O)CCN1C [Ex 865, (S)-6-((7-((5-(3,4-dimethylpiperazin-1-yl)-6-hydroxypyridin-3-yl)amino)-2,6-naphthyridin-1-yl)ethynyl)pyridazin-3(2H)-one] | – | > 250 nM | > 250 nM | – | > 250 nM | 25 to 250 nM | – | –
O=c1ccc(C#Cc2nccc3cnc(Nc4cnc(O)c(N5CCN(CCO)CC5)c4)cc23)n[nH]1 [Ex 866, 6-((7-((6-hydroxy-5-(4-(2-hydroxyethyl)piperazin-1-yl)pyridin-3-yl)amino)-2,6-naphthyridin-1-yl)ethynyl)pyridazin-3(2H)-one] | – | > 250 nM | > 250 nM | – | > 250 nM | 25 to 250 nM | – | –
